Results taken from patent US8349835B2, “Aromatic ring fused triazine derivatives and uses thereof” (Shenyang Pharmaceutical University, priority 2008, dated 2013).

Legend:
[1] = system: Microvascular Endothelial Cells (MVEC); assay: MTT growth inhibition of MVEC; assay type: cell-based; settings: Endothelial cell, 96 h, 4 days culture with drug, read-out: IG50 on inhibiting growth of MVEC
How it was run: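 MVEC were seeded at 2×10^4 cells/mL in DMEM with 10% FBS and allowed to attach for 24 h, then treated with compound at final concentrations of 5–80 μmol/L (triplicates) for 4 days at 37 °C. MTT (4 h) absorbance at 570 nm gave % growth inhibition relative to untreated cells.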

[2] = system: murine melanoma cells (B16F0); assay: MTT growth inhibition of B16F0; assay type: cell-based; settings: Mus musculus, 96 h, 4 days, read-out: IG50 B16F0
Protocol: (§1) In Vitro Anti-Tumor Activity Test
(§2) Put cell suspension into centrifugal tubes with a pipette under sterile conditions, then the cell suspension was centrifuged for 3 minutes at 1300 rpm. Discarded the supernatant lightly and added fresh culture medium. Mixed the cells by pipetting, then transferred the cells into culture flasks, and put them into the CO2 incubator. Changed the culture medium once after 24 hours.
(§3) Human prostate cancer cells (DU145, PC-3) were cultured in a medium containing RPMI1640 basic medium supplemented with 10% heat-inactivated FBS, 100 IU/mL penicillin, 100 μg/mL streptomycin and 1 mmol/L L-glutamine. Human breast carcinoma cells (T47D, MDA-MB231) were cultured in a medium containing RPM11640 basic medium supplemented with 10% heat-inactivated FBS, 5 μg/mL insulin, 100 IU/mL penicillin, 100 μg/mL streptomycin and 1 mmol/L L-glutamine. Human breast carcinoma cells (MCF-7) were cultured in a medium containing DMEM basic medium supplemented with 10% heat-inactivated FBS, 5 μg/mL insulin, 100 IU/mL penicillin, 100 μg/mL streptomycin and […]. Murine Lewis lung cancer cells (LL/2), murine melanoma cells (B16FD) and Microvascular Endothelial Cells (MVEC) were cultured in a medium containing DMEM basic medium supplemented with 10% heat-inactivated FBS, 4.5 g/L glucose, 1.5 g/L NaHCO3, 100 IU/mL penicillin, 100 μg/mL streptomycin and 4 mmol/L L-glutamine. All these cell lines were incubated at 37° C. biochemical incubator with 5% CO2 saturated humidity.
(§4) After resuscitation, the cells were passed for 2-3 generations till they became stable, then they were used for the experiments. Each passage was based on the standard that all cells were spread over the bottoms of culture flasks.
(§5) Cells were digested off from the bottoms of culture flasks with trypsin (0.25%). The cell dissociation buffer was transferred into centrifuge tubes, added medium to stop the digestion, and centrifuged for 3 minutes at 1300 rpm. Discarded the supernatant lightly and added fresh culture medium (5 mL). Mixed the cells by pipetting, then added 10 μL of the cell suspension into the cell counting plate, and adjusted the cell concentration to 2×10^4 cells/mL. Added 100 μL of the cell suspension to all wells on the 96 well plates, except A1 well as the blank control. Put the plates into the biochemical incubator for 24 hours and to make sure the cells grew along the walls. […]
(§6) Added 50 μL MTT liquids (2 mg/mL) into each well, put the culture plates into the biochemical incubator for 4 h, discarded MTT liquids (TCC), added 200 μL DMSO, then oscillated for 10 minutes on the magnetic oscillator to make sure that the survived cells and the reaction product of MTT were fully dissolved. Detected and recorded the absorbance (OD) values of each well at the wavelength of 570 nm using the microplate reader. […] The cell growth inhibition rates under each drug concentration were calculated by the following formula. […] Inhibition rate of growth(%)=(1−The absorbance(OD)of cells with tested drugs/The absorbance(OD)of the blank control group)×100%
(§7) The absorbance (OD) of cells with tested drugs: OD value is measured with the test drugs.
(§8) The absorbance (OD) of the blank control group: OD value is measured without the test drugs. […]

[3] = system: Human Umbilical Vein Endothelial Cells (HUVEC); assay: MTT growth inhibition of HUVEC; assay type: cell-based; settings: 96 h, 4 days, read-out: IG50 HUVEC
Protocol: as §1, §2, §4
Cells were digested off from the bottoms of culture flasks with trypsin (0.25%). The cell dissociation buffer was transferred into centrifuge tubes, added medium to stop the digestion, and centrifuged for 3 minutes at 1300 rpm. Discarded the supernatant lightly and added fresh culture medium (5 mL). Mixed the cells by pipetting, then added 10 μL of the cell suspension into the cell counting plate, and adjusted the cell concentration to 2×10^4 cells/mL. Added 100 μL of the cell suspension to all wells on the 96 well plates, except A1 well as the blank control. Put the plates into the biochemical incubator for 24 hours and to make sure the cells grew along the walls.
The drugs were dissolved in 80 mmol/L DMSO first, and then diluted the drugs with ethanol to 8 mmol/L. The solution was further diluted with the culture medium to different concentrations as 160 μmol/L, 120 μmol/L, 80 μmol/L, 40 μmol/L, 20 μmol/L and 10 μmol/L. Added 100 μL of the drug solution to each well on the 96 well plates. Therefore, the final concentrations of the drugs that were added to the cells were 80 μmol/L, 40 μmol/L, 20 μmol/L, 10 μmol/L and 5 μmol/L, and each concentration were repeated in three parallel wells. Put the culture plates into the biochemical incubator to culture continuously for 4 days.
Added 50 μL MTT liquids (2 mg/mL) into each well, put the culture plates into the biochemical incubator for 4 h, discarded MTT liquids (TCC), added 200 μL DMSO, then oscillated for 10 minutes on the magnetic oscillator to make sure that the survived cells and the reaction product of MTT were fully dissolved. Detected and recorded the absorbance (OD) values of each well at the wavelength of 570 nm using the microplate reader. The OD values of cells without tested drugs were used as control. The cell growth inhibition rates under each drug concentration were calculated by the following formula. […] Inhibition rate of growth(%)=(1−The absorbance(OD)of cells with tested drugs/The absorbance(OD)of the blank control group)×100%
as §7
The absorbance (OD) of the blank control group: OD value is measured without the test drugs.
8) The Growth Inhibition Effect of Compounds on Human Breast Carcinoma Cells (T47D, MDA-MB231, MCF-7), Human Prostate Cancer (DUI45, PC-3), Murine Lewis Lung Cancer Cells (LL/2), Murine Melanoma Cells(B16F0) and Human Umbilical Vein Endothelial Cells (HUVEC) (Table 2).

[4] = system: Murine Lewis lung cancer cells (LL/2); assay: MTT growth inhibition of LL/2; assay type: cell-based; settings: Mus musculus, Lewis lung carcinoma, 96 h; LL/2, MTT, 4 days; read-out: IG50 LL/2
Protocol: as §1, §2, §3, §4, §5, §6, §7, §8

[5] = system: Human prostate cancer cells (DU145); assay: MTT growth inhibition of DU145; assay type: cell-based; settings: DU-145, 96 h, 4 days, read-out: IG50 DU145
Protocol: as §1, §2, §3, §4, §5, §6, §7, §8

[6] = system: Human prostate cancer cells (PC-3); assay: MTT growth inhibition of PC-3; assay type: cell-based; settings: 96 h, PC-3, MTT, 4 days, read-out: IG50 PC-3
Protocol: as §1, §2, §3, §4, §5, §6, §7, §8

[7] = system: Human breast carcinoma cells (T47D); assay: MTT growth inhibition of T47D; assay type: cell-based; settings: 96 h, 4 days, read-out: IG50 T47D
Protocol: as §1, §2, §3, §4, §5, §6, §7, §8

[8] = system: Human breast carcinoma cells (MCF-7); assay: MTT growth inhibition of MCF-7; assay type: cell-based; settings: MCF7, 96 h, MCF-7, MTT, 4 days, read-out: IG50 MCF-7
Protocol: as §1, §2, §3, §4
(§9) Cells were digested off from the bottoms of culture flasks with trypsin (0.25%). The cell dissociation buffer was transferred into centrifuge tubes, added medium to stop the digestion, and centrifuged for 3 minutes at 1300 rpm. […]
as §6, §7, §8

[9] = system: Human breast carcinoma cells (MDA-MB231); assay: MTT growth inhibition of MDA-MB231; assay type: cell-based; settings: MDA-MB-231, 96 h, 4 days, read-out: IG50 MDA-MB231
Protocol: as §1, §2, §3, §4, §9, §6, §7, §8

in vivo = settings: both sexes, mouse, intraperitoneal, Kunming mice, peritoneal injection, single administration, observed for one week
Protocol: 9) Acute Toxicity Testing
Animals: healthy mice of Kunming species, female and male each account for 50%, and the weights range from 18 to 22 g. All the mice were obtained from the laboratory animal center of Shenyang Pharmaceutical University. Certificate number: Liao Shi He Zi No. 033
Medicine preparation: drugs were added in 0.2% Polysorbate 80 (Tween-80) to make suspension. The dosage of tested compounds was indicated with mg/kg.
Test period and Observed index: observed for one week after the administration. The toxic reaction information of the mice was recorded everyday during the observation period. The death of mice was regarded as the principal index. Half lethal doses (LD50, mg/kg) of the compounds one week after the drug administration were calculated according to the method of weighted regression.

VEGFR-2 = VEGFR-2 (Homo sapiens, UniProt P35968); assay: VEGFR-2 inhibition rate test (kinase assay kit, colorimetric ELISA); settings: concentration not given
Rat aortic ring = assay: Rat Aortic Ring Assay; assay type: cell-based; settings: observed on the sixth day
How it was run: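 1 mm abdominal aortic rings from 6-week-old SD animals embedded in Matrigel, cultured in DMEM/10% FBS with compound at various concentrations (≥3 wells), medium and compound renewed day 3. Microvessel area imaged on day 6 (×100, 3 random rings); inhibition rate scored: ⋆<30-60%, ⋆⋆60-90%, ⋆⋆⋆>90%.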

[10] = system: chorioallantoic membrane vessels; assay: Activity test by chick chorioallantoic membrane method; assay type: in vivo; settings: 5 uL medicine on cellulose membrane, chick embryo, 2 days
Protocol: After the shell membrane became wet, tore it open with ophthalmological tweezers so to expose the chorioallantoic membrane. • 6) Added 5 uL of selected medicine to a 0.5×0.5 cm cellulose membrane sterilized by high pressure, then set the membrane on the part of the chorioallantoic membrane with fewer vessels • 7) Closed the window, and put the embryos back into the hatch box to hatch for 2 days. • 8) Opened the transparent tape, and then opened the mixed cellulose membrane lightly with a tweezers. Measured the avascular area and took photographs.

Sequence of VEGFR-2 (P35968 20-1356): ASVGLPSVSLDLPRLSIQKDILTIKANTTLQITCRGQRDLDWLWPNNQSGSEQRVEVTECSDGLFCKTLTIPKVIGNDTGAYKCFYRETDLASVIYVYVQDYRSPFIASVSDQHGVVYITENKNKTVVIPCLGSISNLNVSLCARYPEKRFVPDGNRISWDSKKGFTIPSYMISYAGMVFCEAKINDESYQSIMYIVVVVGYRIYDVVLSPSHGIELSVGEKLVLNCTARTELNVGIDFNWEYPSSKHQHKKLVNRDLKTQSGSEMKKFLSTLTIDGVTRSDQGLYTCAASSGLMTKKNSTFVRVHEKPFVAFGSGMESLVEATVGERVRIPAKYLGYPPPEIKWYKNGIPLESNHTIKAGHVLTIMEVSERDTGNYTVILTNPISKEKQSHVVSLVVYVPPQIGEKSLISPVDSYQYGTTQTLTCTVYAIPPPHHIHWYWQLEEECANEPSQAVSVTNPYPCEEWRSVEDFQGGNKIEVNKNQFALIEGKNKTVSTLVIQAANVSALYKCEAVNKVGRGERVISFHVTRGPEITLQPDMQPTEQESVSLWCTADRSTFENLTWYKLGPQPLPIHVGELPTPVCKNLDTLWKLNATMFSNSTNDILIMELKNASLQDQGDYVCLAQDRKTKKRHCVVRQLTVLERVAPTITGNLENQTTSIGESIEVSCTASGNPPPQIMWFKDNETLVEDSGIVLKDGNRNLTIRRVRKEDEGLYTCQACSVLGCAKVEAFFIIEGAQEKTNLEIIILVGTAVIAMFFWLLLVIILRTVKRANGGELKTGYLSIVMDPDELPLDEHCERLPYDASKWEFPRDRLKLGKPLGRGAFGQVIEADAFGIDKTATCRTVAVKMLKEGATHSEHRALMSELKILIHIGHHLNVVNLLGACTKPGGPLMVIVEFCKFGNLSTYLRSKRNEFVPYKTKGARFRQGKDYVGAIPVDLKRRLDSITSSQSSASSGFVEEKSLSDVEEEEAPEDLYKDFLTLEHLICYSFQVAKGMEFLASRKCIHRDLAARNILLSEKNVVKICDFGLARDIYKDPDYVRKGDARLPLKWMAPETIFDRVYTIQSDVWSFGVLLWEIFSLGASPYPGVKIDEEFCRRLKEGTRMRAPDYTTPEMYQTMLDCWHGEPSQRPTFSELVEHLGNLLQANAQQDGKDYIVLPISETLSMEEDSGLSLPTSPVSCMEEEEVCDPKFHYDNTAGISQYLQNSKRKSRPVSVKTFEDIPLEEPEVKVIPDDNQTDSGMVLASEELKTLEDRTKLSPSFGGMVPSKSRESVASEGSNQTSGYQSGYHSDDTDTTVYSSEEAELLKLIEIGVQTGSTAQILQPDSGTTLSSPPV

Row | SMILES | IC50 [1] [µM] | IC50 [2] [µM] | IC50 [3] [µM] | IC50 [4] [µM] | IC50 [5] [µM] | IC50 [6] [µM] | IC50 [7] [µM] | IC50 [8] [µM] | IC50 [9] [µM] | LD50 at 1 week (in vivo) [mg/kg] | Kinase inhibition rate (VEGFR-2) (VEGFR-2) | Rat Aortic Ring Assay (10 ug/ml), result in words (Rat aortic ring) | The inhibitory effect on the growth of chorioallantoic membrane vessels [10]
1 | CCCCOc1cc2nnnc(Nc3ccc(C)cc3)c2cc1OC [Example 27, 6-methoxy-7-n-butoxy-4-(4-methylanilino)-benzo[d][1,2,3]triazine] | 9.09 | 22.2 | 5.06 | 15.7 | 15.1 | 15.8 | 18.4 | 6.17 | 19.6 | 733 | – | – | –
2 | COc1cc2c(Nc3ccc(F)c(Cl)c3)nnnc2cc1OCCCCl [Example 72, 6-methoxy-7-chloropropoxy-4-(3-chloro-4-fluoroanilino)-benzo[d][1,2,3]triazine] | 7.98 | 5.19 | 3.73 | 3.79 | 4.96 | 6.91 | 5.04 | – | – | – | −14.70 | – | –
3 | FC(F)(F)c1cccc(Nc2nnnc3ccc(Cl)nc23)c1 [Example 84, 6-chloro-4-(3-trifluoromethylanilino)pyrido[3,2-d][1,2,3]triazine] | 5.25 | 4.28 | 3.02 | 4.79 | 5.9 | 6.9 | 5.87 | 3.95 | 5.1 | 424 | – | Almost complete inhibition (10 μg/mL), vascular ring was dead | –
4 | FC(F)(F)Oc1cccc(Nc2nnnc3ccc(Cl)nc23)c1 [Example 86, 6-chloro-4-(3-trifluoromethoxyanilino)pyrido[3,2-d][1,2,3]triazine] | 4.28 | 4.67 | 2.21 | 4.13 | 4.14 | 5.99 | 6.42 | 4.55 | 4.71 | 292 | 29.93 | Almost complete inhibition (10 μg/mL), vascular ring was dead | –
5 | Clc1ccc(Nc2nnc(Cc3ccncc3)c3ccccc23)cc1 [PTK787, Vatalanib succinate, reference compound] | 38.1 | 21.4 | > 40 | 35 | 41.3 | 63.7 | 36.3 | 12.3 | 24.2 | – | – | – | There is no vascular growth.
